Measurements from publication PMC5688156, “The natural product carolacton inhibits folate-dependent C1 metabolism by targeting FolD/MTHFD” (Nature Communications, 2017).

Legend:
ecFolD = target: T1, ecFolD (Escherichia coli, UniProt P24186); test: SPR binding to ecFolD; parameters: species or system E. coli
T1 construct: His-tag (TEV-cleavable, vector pHis-TEV); made in house; host or cells: E. coli BL21 (DE3)
Protocol: (§1) All surface plasmon resonance (SPR) experiments described in this study were performed on a Biacore X100 system. Different FolDs with or without His-tag were coupled on CM5 sensor chips (GE Healthcare) by the amine coupling method using a kit from GE Healthcare Life Sciences (Freiburg, Germany). A pH scouting process was performed before protein immobilization to test the most appropriate buffer and the protein concentration for protein coupling. Finally, 20 μg/mL of ecFolD in 10 mM maleate buffer (pH 6.8), 30 μg/mL of ecFolD Q98H in 10 mM maleate buffer (pH 6.3), 40 μg/mL of ecFolD K54N in 10 mM maleate buffer (pH 5.8), 20 μg/mL of spFolD in 10 mM maleate buffer (pH 6.0) and 15 μg/mL of MTHFD2 (His-tag cleaved) in 10 mM maleate buffer (pH 6.8) were used for coupling. In the protein immobilization procedure, the contact time was calculated based on the pH scouting results to achieve ~3000–5000 relative resonance units (RU). The buffer used in the SPR assays was 1× HBS-P buffer (10 mM HEPES pH 7.4, 150 mM NaCl, 0.05% Tween 20). The 1 mM stock solution of carolacton was prepared in 1× HBS-P buffer and diluted to different concentration ranges by two-fold serial dilution. In the SPR assay, the association time was 180 s and the dissociation time was 600 s. Data analysis was performed using the Biacore evaluation software. […]

ecFolD K54N = target: T2, ecFolD K54N (Escherichia coli, UniProt P24186, K54N); test: SPR binding to ecFolD K54N; parameters: species or system E. coli; conditions: K54N mutant
T2 construct: His-tag (TEV-cleavable, vector pHis-TEV); made in house; host or cells: E. coli BL21 (DE3)
Protocol: as §1

HCT-116 = test: Cytotoxicity screening, HCT-116 (MTT); format: cell-based, human; conditions: for EC50: 5 d treatment, MTT
Protocol: Half maximal effective concentrations (EC50) on human cancer cell lines were determined as described elsewhere. Human cancer cell lines were maintained as recommended by the depositor (German Collection of Microorganisms and Cell Cultures, DSMZ) and were treated for 5 d with carolacton in serial dilution. The viability of adherent cell types, HCT-116 (ACC 581), KB-3.1 (ACC-158) and KB-V.1 (ACC-149) was assessed by the addition of MTT tetrazolium salt and absorbance measurement at 570 nm. Histiocytic lymphoma U-937 cells (ACC-5) were maintained in RPMI 1640 medium and transferred into folate-free medium prior to the assay. Cell viability was determined by measuring alamar blue fluorescence emission at 590 nm. The values were referenced and EC50 values were determined by sigmoidal curve fitting. The cell lines KB-3.1 and KB-V.1 are originally derived from HeLa, whereas the latter is an MDR subclone of KB-3.1. They were used to directly compare the activity of carolacton on an mdr1 overexpressing and a sensitive cell line.

CO[C@H](CC(=O)O)[C@@H](C)C(=O)[C@H](C)/C=C(\C)[C@H]1OC(=O)[C@H](O)[C@H](O)/C=C/[C@H](C)CCC[C@@H]1C [carolacton]
Kd (ecFolD): 0.01 µM | koff (ecFolD): 0.01 s⁻¹ | binding by SPR (ecFolD K54N): does not bind | EC50 (HCT-116): 24.6 ± 0.8 µM | EC50 (HCT-116; Homo sapiens, HCT-116, 120 h): 25 µM | Maximum inhibition (HCT-116; inhibition of cell growth, 5 d): >80%
